Where two headings read alike, the source gives them in different places.
Experiments:
adult bed bugs [1] = test system: adult bed bugs
Procedure: This example illustrates the dry residual pesticidal activity of formulations comprising varying pesticidal natural oils (oregano, clove and cinnamon oils) with acetophenone as the polar aromatic solvent. Solutions were prepared using 5.5% by weight natural oil; the percent by weight of acetophenone indicated in Table 19 and an appropriate amount of isopropanol as a carrier diluent. The percent by weight of solvent was at a final concentration of 1.5 mol/kg. Solutions were also prepared of each natural oil alone (5.5% by weight with an appropriate amount of isopropanol as a carrier diluent), and of acetophenone alone (the percent by weight indicated in Table 19 with an appropriate amount of isopropanol as a carrier diluent). Treated Groups for each solution were prepared by treating filter paper, 90 mm in diameter, with 1.0 mL of solution and allowing it to air dry for four hours. A known number of adults (usually 10) were added to each treated dish, four hours after treatment. Bed bug mortality was assessed immediately after infestation and at 1-hour, 2-hour, 4-hour, 6-hour, 8-hour, 10 hour, 12-hour, and 24-hour intervals, and at 24-hour intervals thereafter until 14 days after infestation. Adult bed bugs were counted dead if they were unresponsive when stimulated.

adult bed bugs [2] = type: in vivo; conditions: […] neem oil + […] named solvent in isopropanol, 4 h dried residue
adult bed bugs [3] = test system: adult bed bugs; remark: listed apart in the source
Procedure: This example illustrates the dry residual pesticidal activity of formulations comprising further pesticidal natural oils (thyme, garlic and neem oils) with acetophenone as the polar aromatic solvent. Solutions were prepared using 5.5% by weight natural oil; the percentage by weight of organic solvent indicated in Table 20 and an appropriate amount of isopropanol as a carrier diluent. Solvent was added to a final concentration of 1.5 mol/kg. Solutions were also prepared of each natural oil alone (5.5% by weight with an appropriate amount of isopropanol as a carrier diluent), and of the polar organic solvent alone (the percent by weight indicated in Table 20 with an appropriate amount of isopropanol as a carrier diluent). Treated Groups for each solution were prepared by treating filter paper, 90 mm in diameter, with 1.0 mL of solution and allowing it to air dry for four hours. A known number of adults (usually 10) were added to each treated dish, four hours after treatment. Bed bug mortality was assessed immediately after infestation and at 1-hour, 2-hour, 4-hour, 6-hour, 8-hour, 10 hour, 12-hour, and 24-hour intervals, and at 24-hour intervals thereafter until 14 days after infestation. Adult bed bugs were counted dead if they were unresponsive when stimulated.

bed bug eggs [4] = type: in vivo, Cimex lectularius L.; conditions: […] neem oil + named solvent in isopropanol; 4 h dried residue; 3 weeks after infestation
Description: Immediately after infestation, and at 1-, 2-, and 3-week intervals thereafter, the numbers of hatched and unhatched eggs present in the sealed dishes were counted and compared to other Treated Groups. One egg was counted as “hatched” for every new nymph present in the petri dish when compared with the prior interval. Table 13 compares the % egg eclosion of the treated groups at the 3-week observation interval. The maximum mortality data obtained in Example 3, above, are included for comparison purposes.

adult bed bugs [5] = conditions: for LT50: 2 h dried residue on filter paper; for Max Mortality: 2 h dried residue, observed until 33 days
Procedure: 1.0 mL of each solution was applied to three replicates of filter paper, 90 millimeters in diameter, contained in petri dishes (Treated Groups). Treated Groups and three replicates of an untreated Control Group were allowed to dry for two hours prior to infestation with a known number of adult bed bugs (approximately half male and half female).
Bed bug mortality was assessed immediately after infestation and at 2-, 4-, 8-, 12-, and 24-hour intervals after infestation, and daily thereafter until 33 days after infestation. Adult bed bugs were counted dead if they were unresponsive when stimulated.

bed bug eggs [6] = test: Prevention of egg emergence by various pesticidal natural oils (Example 11); type: in vivo, Cimex lectularius L.; conditions: for % Eclosion (3 weeks post-infest.): 2 h dried residue, five eggs
Procedure: Five bed bug eggs were added to each treated dish, two hours after treatment. Immediately after infestation, and at 1-, 2-, and 3-week intervals thereafter, the numbers of hatched and unhatched eggs present in the sealed dishes were counted and compared to other Treated Groups. One egg was counted as “hatched” for every new nymph present in the petri dish when compared with the prior interval. Table 12 compares the mean % egg eclosion of the treated groups at three weeks post-infestation. The maximum mortality data obtained in Example 2, above, are included for each formulation, for comparison purposes.

[7] = 4 h dried residue on filter paper
[8] = […] by weight oil and/or 18.25% w/w acetophenone in isopropanol, 4 h dried residue on filter paper
[9] = time of maximum mortality, 4 h dried residue on filter paper
[10] = […] oil + 5.0% acetophenone + […] sodium lauryl sulphate in water
[11] = […] oil + 5.0% ethyl lactate + […] sodium lauryl sulphate in water

CC(=O)c1ccccc1 [Acetophenone]
LT50 (adult bed bugs [1]; [7]): 17 h | Max Mortality (adult bed bugs [1]; [8]): 100% | Time (adult bed bugs [1]; [9]): 53 h | Time to Max Mortality (adult bed bugs [2]): 24 h | Max. Mortality (adult bed bugs [2]; observed until 14 days): 100% | LT50 (adult bed bugs [3]; [7]): 11 h | Max Mortality (adult bed bugs [3]; [8]): 100% | Time (adult bed bugs [3]; [9]): 48 h | % Eclosion (bed bug eggs [4]): 0%

C=CCc1ccc(O)c(OC)c1 [Eugenol]
LT50 (adult bed bugs [5]; [10]): 2.82 h | Max Mortality (adult bed bugs [5]; [10]): 100% | LT50 (adult bed bugs [5]; [11]): 9.91 h | Max Mortality (adult bed bugs [5]; [11]): 100% | prevention of egg eclosion (bed bug eggs [6]; […] by weight oil with 5.0% acetophenone, all observation intervals): some increased prevention of egg emergence | % Eclosion (3 weeks post-infest.) (bed bug eggs [6]; […] oil + 5.0% acetophenone in water): 20% | % Eclosion (3 weeks post-infest.) (bed bug eggs [6]; […] oil + 5.0% ethyl lactate in water): 40% | prevention of egg eclosion (bed bug eggs [6]; […] oil combined with 15.5% acetophenone by weight): complete prevention of egg eclosion

Cinnamon Oil
Max Mortality (adult bed bugs [1]; in vivo): 90% | Max Mortality (adult bed bugs [3]; in vivo): 100%

From patent US9999218B2, “Pest control formulations and methods of making and using same” (0903608 B.C. Ltd., priority 2011, dated 2018)
